According to paper PMC6030077, “Dual role of HDAC10 in lysosomal exocytosis and DNA repair promotes neuroblastoma chemoresistance” (Scientific Reports, 2018):
“Also recorded” adds a separate entry of the source. Each block holds one compound with its values, some of them ahead of it.

Experiments:
[1] = system: BE(2)-C cells; assay: Cell viability, automated trypan blue exclusion, BE(2)-C; type: cell-based, human; settings: 100 ng/ml doxorubicin; for viability of BE(2)-C cells, single treatment: 7.5 µM tubastatin A or vacuolin-1 alone; for viability of BE(2)-C cells, combination with doxorubicin, 24 h, compared to doxorubicin alone: 10 µM verapamil or vacuolin-1
Procedure: Adherent cell lines were trypsinized and cells were pooled with corresponding supernatant, centrifuged and resuspended in 1.5 ml cell culture media. Cell viability was measured by automated trypan blue staining with the Vi-Cell XR Cell Viability Analyzer from Beckman Coulter (Krefeld, Germany).

[2] = system: BE(2)-C cells; assay: Alkaline single cell gel electrophoresis assay (comet assay); type: cell-based, human; settings: 18 h, tubastatin A 7.5 µM or doxorubicin 100 ng/ml
Procedure: BE(2)-C cells were treated with the HDAC6/10 inhibitor tubastatin A alone or in combination with the genotoxic drug doxorubicin (100 ng/ml doxorubicin, 7.5 µM tubastatin) for 18 h. Untreated cell aliquots and cells irradiated with 5 Gy (^137Cs radiation source, dose rate of 1 Gy min^−1) were used as negative and positive controls, respectively. Cells were subsequently analyzed by the alkaline comet assay as previously described[68],[69] with some modifications. In brief, the cells were mixed with 0.7% low-melting temperature agarose (Biozym), plated on two-well slides (Trevigen), and subsequently lysed overnight. Single cell electrophoresis was performed at 4 °C. Analysis of DNA damage was accomplished by fluorescence microscopy using a fully automated cell scanning system Metafer-4 (Metasystems) as described in[70]. DNA damage was assessed as “Tail DNA in %”. Statistical evaluation of two differently treated cell aliquots was performed with the Mann Whitney test using GraphPad Prism version 5.04 for Windows.

[3] = system: BE(2)-C cells; assay: Flow cytometric analysis of LysoTracker DND-99 staining (lysosomal accumulation); type: cell-based, human; settings: for lysosomal accumulation (LysoTracker staining): 24 h, bufexamac 30 µM, tubastatin A 7.5 µM, tubacin 7.5 µM, VPA 1 mM, vacuolin-1 10 µM
Procedure: Six days after siRNA transfection or 24 h after treatment with HDAC or lysosomal inhibitors, cells were stained for 1 h with 50 nM LysoTracker® Red DND-99 in medium under standard cell culture conditions. Cells were washed with ice-cold RPMI w/o phenol-red and detached using Trypsin/EDTA for 3 minutes at 37 °C. Cells were centrifuged, resuspended in RPMI w/o phenol red and LysoTracker® Red fluorescence was quantified on a BD FACSCanto II platform using the PE filter setting.

[4] = system: BE(2)-C cells; assay: Flow cytometric quantification of intracellular doxorubicin accumulation, BE(2)-C; type: cell-based, human; settings: for intracellular doxorubicin after co-treatment: 48 h, bufexamac 30 µM, tubastatin A 7.5 µM, tubacin 7.5 µM
Procedure: (§1) For flow cytometric quantification of intracellular doxorubicin after HDAC6/10 inhibition, BE(2)-C, SK-N-AS, IMR-32, HAP1 wild type and HDAC10 knockout cells were seeded in 6-well dishes at a density of 1.5 ∗ 10^5 cells/well (BE(2)-C and SK-N-AS, HAP1) and 3 ∗ 10^5 cells/well (IMR-32). Cells were treated with 25 ng/ml, 50 ng/ml, 100 ng/ml or 1 µg/ml doxorubicin, respectively, for 3–48 h (see respective figure legend). Where indicated, cells were co-treated with HDAC6/10 or lysosomal inhibitors. In case of co-treatment with vacuolin-1, vacuolin-1 was directly added to cells under doxorubicin treatment 1 h or 24 h prior to analysis. Flow cytometric quantification of intracellular doxorubicin after HDAC6, HDAC10 or P-glycoprotein knockdown in BE(2)-C cells was performed 5 days (P-glycoprotein) or 6 days (HDAC6/10) after transfection with siRNA. To that end, cells were seeded 3–4 days after transfection into 6-well dishes at 1.5 ∗ 10^5 cells per well and treated with 100 ng/ml doxorubicin +/− HDAC6/10 and lysosomal inhibitors for the last 24 h. After doxorubicin treatment, BE(2)-C, SK-N-AS, IMR-32 and HAP1 cells were washed with ice-cold RPMI w/o phenol-red and detached using Trypsin/EDTA for 3 minutes at 37 °C. Cells were centrifuged, resuspended in RPMI w/o phenol red and doxorubicin fluorescence was quantified on a BD FACSCanto II platform using the PE filter setting.

[5] = system: proliferating human fibroblasts; assay: Flow cytometric analysis of cellular doxorubicin fluorescence, fibroblasts; type: cell-based; settings: 100 ng/ml doxorubicin 48 h; tubastatin A 7.5 µM, vacuolin-1 10 µM, verapamil 10 µM
[6] = system: BE(2)-C cells; assay: Flow cytometric analysis of cell surface LAMP-1 (lysosomal exocytosis); type: cell-based, human; settings: 6 h tubastatin A 7.5 µM, bufexamac 30 µM, tubacin 7.5 µM, vacuolin-1 10 µM 1 h
Procedure: (§2) Cells were dissociated from dishes using non-enzymatic cell dissociation reagent for five minutes. Cells were counted using a ViCell XR automatic cell counter (Beckmann Coulter) and 2.5 ∗ 10^5 cells were transferred into a pre-cooled 96-well round bottom plate (TPP92097). Cells were stained for 1.5–2 hours on ice with primary anti P-gp (Biozol ABA-AB00143-1.1), LAMP-1 (H4A3, DHSB) antibody or isotype control (DLN-05794, Dianova, Barcelona, Spain) and for 1 hour with APC-labeled secondary antibody (Dianova 115-136-068). Cells were washed three times in FACS buffer (5% FBS in PBS) after each antibody incubation step. For evaluation of DNA double-strand breaks, cells were detached from dishes using trypsin, counted using a ViCell XR automatic cell counter (Beckmann Coulter) and transferred into a pre-cooled 96-well round bottom plate (4 ∗ 10^6 cells/well). Cells were fixed and permeabilized using the eBioscience^TM Foxp3/Transcription Factor Staining Buffer Set (Thermo Fisher Scientific). Cells were stained for 1.5 h with Phospho-Histone H2A.X (S139) primary antibody (CST #9718) and for 1 h in Alexa-488-labeled secondary antibody (ThermoFisher A-11008). Cells were washed three times in 1× permeabilization buffer after each antibody incubation step and fluorescence was quantified on a BD FACSCanto II platform.

[7] = system: P-glycoprotein; assay: Flow cytometric quantification of cell surface P-gp expression; type: cell-based, human; settings: BE(2)-C; 6 h tubastatin A 7.5 µM; vacuolin-1 10 µM 1 h
Procedure: as §2

[8] = system: BE(2)-C cells; assay: Pulse-chase analysis of doxorubicin secretion/retention; type: cell-based, human; settings: 12 h pre-treatment, 1 µg/ml doxorubicin 3 h, washout, relative to t0
Procedure: To test whether HDAC10 inhibition prolonged the retention of doxorubicin, we used a pulse-chase approach in which BE(2)-C cells were pre-treated over night with HDAC6/10 inhibitors and then loaded with high concentrations of doxorubicin for 3 h (1 µg/ml). After doxorubicin washout, HDAC6/10 or HDAC6 inhibitors were re-added (t0), and intracellular doxorubicin fluorescence was measured at t0, as well as 3 h (t3h) and 6 h (t6h) after doxorubicin removal (Fig. 5h–k). […] In summary, secretion of doxorubicin was slowed down in case of HDAC6/10 inhibition but not by specific HDAC6 inhibition alone.
as §1

[9] = system: BE(2)-C cells; assay: Flow cytometric analysis of γH2A.X staining (DNA double-strand breaks); type: cell-based, human; settings: 24 h, tubastatin A 7.5 µM, vacuolin-1 10 µM; for DSBs (γH2A.X), treatment alone in the absence of doxorubicin: verapamil 10 µM
Procedure: as §2, with “Cells were stained for 1.5–2 hours on ice with primary anti P-gp (Biozol ABA-AB00143-1.1), LAMP-1 (H4A3, DHSB) antibody or isotype control (DLN-05794, Dianova, Barcelona, Spain) and for 1 hour with APC-labeled secondary antibody (Dianova 115-136-068).” left out, “Cells were stained for 1.5 h with Phospho-Histone H2A.X (S139) primary antibody (CST #9718) and for 1 h in Alexa-488-labeled secondary antibody (ThermoFisher A-11008).” left out

[10] = system: HDAC6; assay: Western blot analysis of tubulin K40 acetylation as a marker for HDAC6 inhibition; type: cell-based, human; settings: 24 h; bufexamac 30 µM, tubastatin A 7.5 µM, tubacin 7.5 µM
Procedure: Western blot analysis was performed as previously described. The following antibodies were used: anti-HDAC6 (sc-11420, Santa Cruz), anti-HDAC10 (H3413, Sigma), anti-acetylated histone H3 (06-911, Merck Millipore), anti-histone H3 (9715, Cell Signaling Technology, Cambridge UK), anti-LAMP-1 (H4A3, DHSB, Iowa City, IA, USA), anti-LAMP-2 (H4B4; Santa Cruz Biotechnology), anti-acetylated tubulin (6–11B-1; Sigma), anti-tubulin (2148, Cell Signaling Technology), anti P-glycoprotein (13978 S, Cell Signaling Technology) and anti-β-actin (clone AC-15; Sigma).

[11] = system: HDACs 1–3; assay: Western blot analysis of histone H3 acetylation; type: cell-based, human; settings: 1 mM, 6 h
Procedure: Western blot analysis was performed as previously described. […] (b) Western blot analysis of histone H3 […] class IIb HDAC inhibitor tubastatin A, respectively. Numbers below blot indicate histone H3 acetylation normalized to total histone H3 expression and relative to DMSO treated control. Bands of indicated proteins were developed on the same blot. (c) Flow cytometric analysis of LysoTracker DND-99 staining in BE(2)-C cells 24h after treatment with class I HDAC inhibitor VPA and class IIb HDAC inhibitor tubastatin A. Statistical analyses were performed on non-normalized data using paired, two-tailed t-test (***p < 0.001; **0.001 ≤ p < 0.01; *0.01 ≤ p < 0.05). Error bars represent SEM. 3 (1 picture or pasted object on this page, not shown here)

Structure (SMILES): COc1cccc2c1C(=O)c1c(O)c3c(c(O)c1C2=O)C[C@@](O)(C(=O)CO)C[C@@H]3O[C@H]1C[C@H](N)[C@H](O)[C@H](C)O1 [doxorubicin]
- viability of BE(2)-C cells, single treatment [1]: did not substantially reduce cell viability
- DSBs in comet assays, single treatment [2]: increased DSBs only trend-wise

Structure (SMILES): Ic1cccc(/C=N/Nc2nc(N3CCOCC3)nc(N(c3ccccc3)c3ccccc3)n2)c1 [vacuolin-1]
- lysosomal accumulation (LysoTracker staining) [3]: increased LysoTracker staining
- doxorubicin accumulation with lysosomal exocytosis inhibitor ([4]; 100 ng/ml doxorubicin 48 h, 10 µM vacuolin-1): promoted doxorubicin accumulation
- intracellular doxorubicin in fibroblasts [5]: did not exhibit strongly increased intracellular doxorubicin
- cell surface LAMP-1 levels [6]: robustly reduced surface LAMP-1
- cell surface P-gp levels [7]: slightly increased surface P-gp levels
- retention of intracellular doxorubicin 3 h and 6 h after doxorubicin removal [8]: retained higher levels of intracellular doxorubicin
- viability of BE(2)-C cells, single treatment [1]: no substantial effect
- viability of BE(2)-C cells, combination with doxorubicin, 24 h, compared to doxorubicin alone [1]: strongly reduced cell viability
- DSBs (γH2A.X), co-treatment with doxorubicin compared to doxorubicin alone ([9]; 100 ng/ml doxorubicin): increased doxorubicin induced DSBs
- DSBs (γH2A.X), treatment alone in the absence of doxorubicin [9]: did not induce DSBs on its own

Structure (SMILES): O=C(CCCCCCC(=O)Nc1ccc([C@H]2O[C@@H](CSc3nc(-c4ccccc4)c(-c4ccccc4)o3)C[C@@H](c3ccc(CO)cc3)O2)cc1)NO [tubacin]
- lysosomal accumulation (LysoTracker staining) [3]: did not
- HDAC6 inhibition (tubulin K40 acetylation) [10]: substantially inhibited HDAC6
- intracellular doxorubicin after co-treatment ([4]; 100 ng/ml doxorubicin): did not alter cellular doxorubicin content
- retention of intracellular doxorubicin 3 h and 6 h after doxorubicin removal [8]: had no effect

Structure (SMILES): CCCCOc1ccc(CC(=O)NO)cc1 [bufexamac]
- lysosomal accumulation (LysoTracker staining) [3]: caused lysosomal accumulation
- HDAC6 inhibition (tubulin K40 acetylation) [10]: substantially inhibited HDAC6; also recorded: lowest potency against HDAC6
- intracellular doxorubicin after co-treatment ([4]; 100 ng/ml doxorubicin): increased intracellular doxorubicin
- intracellular doxorubicin levels, short-term ([4]; 12 h pre-treatment with inhibitor, then 1 µg/ml doxorubicin for 3 h): increased intracellular doxorubicin levels
- cell surface LAMP-1 levels [6]: reduced surface LAMP-1 levels
- retention of intracellular doxorubicin 3 h and 6 h after doxorubicin removal [8]: retained higher levels of intracellular doxorubicin

Structure (SMILES): COc1ccc(CCN(C)CCCC(C#N)(c2ccc(OC)c(OC)c2)C(C)C)cc1OC (centres unmarked) [verapamil]
- basal levels of doxorubicin in cells ([4]; 100 ng/ml doxorubicin 24 h, 10 µM verapamil): increased the basal levels of doxorubicin
- intracellular doxorubicin in fibroblasts [5]: strongly increase doxorubicin accumulation
- viability of BE(2)-C cells, combination with doxorubicin, 48 h, compared to doxorubicin alone ([1]; 10 µM verapamil): not significant
- viability of BE(2)-C cells, combination with doxorubicin, 24 h, compared to doxorubicin alone [1]: only slightly reduced cell viability
- DSBs (γH2A.X), treatment alone in the absence of doxorubicin [9]: did not induce DSBs

Structure (SMILES): CCCC(CCC)C(=O)O [VPA, valproic acid]
- lysosomal accumulation (LysoTracker staining) [3]: did not induce lysosomal accumulation
- inhibition of HDACs 1–3 (histone H3 acetylation) [11]: substantially inhibiting HDACs 1–3

- EC50 ([3]; Homo sapiens, 24 h treatment, read-out: LysoTracker staining (lysosomal accumulation) EC50): 0.183 µM
Structure (SMILES): CN(C)Cc1c(C(=O)NCCOc2ccc(C(=O)NO)cc2)oc2ccccc12 [abexinostat]
- concentrations at which lysosomal accumulation is induced ([3]; 24 h treatment): ≥ 100 nM
- concentrations at which intracellular doxorubicin amounts are increased ([4]; 100 ng/ml doxorubicin, 24 h co-treatment): greater than or equal to 500 nM
